SMILES strings stand for the structures.

Here are results for one molecule from US8889705B2, “Noscapine analogs and their use in treating cancers” (Emory University, priority 2007, dated 2014).

For assay [1], the system named is caspase-3 activity in CEM, CEM/VLB100, CEM/VM-1-5, 1A9 and 1A9/PTX22 cells. As to the kind of experiment: Determination of caspase-3 activity (Z-DEVD-aminoluciferin). As to conditions: 72 hours; 25 μM (CEM lines) or 50 μM (1A9 lines). It counts as cell-based, human. As for the experimental part:
Determination of caspase-3 activity: 10^6 cells were incubated with 25 μM 9-nitro-nos (CEM, CEMNLB100 and CEM/VM-1-5) or 50 μM 9-nitro-nos (1A9 and 1A9/PTX22) for 0, 24, 48 and 72 hours. Caspase-3 activity was then measured by the cleavage of the small synthetic substrate Z-DEVD-aminoluciferin (CaspaseGlo™ 3/7 Assay System Kit, Promega, Madison, Wis.) that becomes luminogenic upon cleavage. The luminescent signal, which is directly proportional to the amount of caspase-3 activity, was measured in a luminescence plate reader.

The next assay has as its system CEM/VLB100 cells. As to the kind of experiment: In vitro cell proliferation MTS assay. To be noted: Homo sapiens, CEM/VLB100, 72 hours. It counts as cell-based. As for the experimental part: (§1) Suspension cells (CEM, CEMNLB100 and CEM/VM-1-5) were cultured in RPMI-1640 media containing 10% FBS and then seeded into 96-well plates at a density of 5×10^3 cells per well and were treated with increasing gradient concentrations of 9-nitro-nos for 72 hours. Measurement of cell proliferation was performed colorimetrically by 3-(4,5-dimethylthiazol-2-yl)-5-(3-carboxymethoxyphenyl)-2-(4-sulphophenyl)-2H-tetrazolium, inner salt (MTS) assay, using the CellTiter96 AQueous One Solution Reagent (Promega, Madison, Wis.). Cells were exposed to MTS for 3 hours and absorbance was measured using a microplate reader (Molecular Devices, Sunnyvale, Calif.) at an optical density (OD) of 490 nm. The percentage of cell survival as a function of drug concentration for both the assays was then plotted to determine the IC50 value, which stands for the drug concentration needed to prevent cell proliferation by 50%.
On the technique in general: Tetrazolium dyes change colour on reduction, which living cells bring about.

A further assay has as its system CEM/VM-1-5 cells. The assay is described as follows: In vitro cell proliferation MTS assay. As to conditions: Homo sapiens, CEM/VM-1-5, 72 hours. It counts as cell-based. As for the experimental part: as §1
The next assay deals with 1A9/PTX22 cells. As to the kind of experiment: TUNEL assay for apoptosis (flow cytometry). As to conditions: 1A9/PTX22, 50 μM, 72 hours. It counts as cell-based, human. The method, then: DNA strand breaks were identified by using the TUNEL assay as described. In brief, 1A9/PTX22 cells were incubated with 50 μM 9-nitro-nos for 72 hours. Cells were pelleted and washed with ice-cold PBS twice. Cells were then fixed in 1% paraformaldehyde, and apoptosis was detected using the APO-BrdU TUNEL Assay Kit from Molecular Probes (Eugene, Oreg.) according to the manufacturer's instructions. This assay was run on a flow cytometer equipped with a 488 nm argon laser as the light source. Propidium iodide (total cellular DNA) and Alexa-Fluor 488 (apoptotic cells) were the two dyes used. PI fluoresces at about 623 nm and Alexa-Fluor 488 at about 520 nm when excited at 488 nm. […] The gating display was the standard dual parameter DNA doublet discrimination display with the DNA area signal on the Y-axis and the DNA width signal on the X-axis. From this display, a gate was generated around the non-clumped cells and the second gated dual parameter display was generated with the DNA (linear red fluorescence) on the X-axis and the Alexa-Fluor 488 (log green fluorescence) on the Y-axis. Apoptotic cells were subsequently counted as those expressing high Alexa-Fluor 488 fluorescence. Confocal micrographs were also obtained for the TUNEL-stained cells using a 63× objective.
A general note: In flow cytometry, cells or beads pass a laser one at a time.

In assay [2] the test system is CEM, CEM/VLB100, CEM/VM-1-5, 1A9 and 1A9/PTX22 cells. As to the kind of experiment: Immunofluorescence microscopy (microtubule and nuclear morphology). To be noted: 72 hours. It counts as cell-based, human. The method, then: Cells adhered to poly-L-lysine coated coverslips were treated with 9-nitro-nos for 72 hours. After treatment, cells were fixed with cold (−20° C.) methanol for 5 min and then washed with phosphate-buffered saline (PBS) for 5 min. Non-specific sites were blocked by incubating with 100 μl of 2% BSA in PBS at 37° C. for 15 min. A mouse monoclonal antibody against α-tubulin (DM1A, Sigma) was diluted 1:500 in 2% BSA/PBS (100 μl) and incubated with the coverslips for 2 hours at 37° C. Cells were then washed with 2% BSA/PBS for 10 min at room temperature before incubating with a 1:200 dilution of a fluorescein-isothiocyanate (FITC)-labeled goat anti-mouse IgG antibody (Jackson ImmunoResearch, Inc., West Grove, Pa.) at 37° C. for 1 hour. Coverslips were then rinsed with 2% BSA/PBS for 10 min and incubated with propidium iodide (0.5 μg/ml) for 15 min at room temperature before they were mounted with Aquamount (Lerner Laboratories, Pittsburgh, Pa.) containing 0.01% 1,4-diazobicyclo(2,2,2)octane (DABCO, Sigma). Cells were then examined using confocal microscopy for microtubule morphology, and nuclear morphology to visualize DNA fragmentation (at least 100 cells were examined per condition).

In the next assay the test system is CEM cells. As to the kind of experiment: In vitro cell proliferation MTS assay. It counts as cell-based. To be noted: Homo sapiens, CCRF-CEM, 72 hours. The method, then: as §1
as §1, with “(CEM)” for “(CEM, CEMNLB100 and CEM/VM-1-5)”, “were” for “were cultured in RPMI-1640 media containing 10% FBS and then”, “increasing” for “increasing gradient”, “all halogenated analogs” for “9-nitro-nos”

For orientation: IC50 means the concentration needed to halve the response being measured. As for `COc1ccc2c(c1OC)C(=O)O[C@@H]2[C@H]1c2c(c([N+](=O)[O-])c3c(c2OC)OCO3)CCN1C` [9-nitro-nos, (S)-6,7-dimethoxy-3-((R)-4-methoxy-6-methyl-9-nitro-5,6,7,8-tetrahydro-[1,3]dioxolo[4,5-g]isoquinolin-5-yl)isobenzofuran-1(3H)-one], in assay [1], the “activation of caspase-3” value was 10-20 fold. In addition, the figures for the half-inhibitory concentration (IC50) in the assay on CEM/VLB100 cells, in the assay with CEM/VM-1-5 cells and in the assay on CEM cells were 8.1 µM, 6.9 µM and 10 µM, respectively. The molecule also came in with a TUNEL-positive cells with 1A9/PTX22 cells of 55.9%. The “cellular and nuclear morphology (apoptosis)” value in assay [2] was “extensive terminal apoptotic figures with fragmented DNA pieces and perturbed microtubule arrays”.
